Data as given in ChEMBL document CHEMBL3045390, “Synthesis of 3-(5-bromo-2,3-dimethoxy-phenyl)-[1, 2, 4] oxadiazole analogues and their evaluation as anti-Parkinsons agents” (Med Chem Res, 2008).
The source made the active and inactive calls. No cut-off for these calls is given here.

Tests used:
Rattus norvegicus [1] = experiment: Antiparkinson's activity in Rattus norvegicus albino (rat) assessed as reduction of chlorpromazine-induced catatonia at 100 mg/kg, ip administered 30 min before chlorpromazine challenge measured up to 180 min; format: functional, organism-based; parameters: dose 100 mg/kg
[2] = Lipophilicity, log P of the compound; format: physicochemical; settings: octanol/water
Rattus norvegicus [3] = experiment: Neurotoxicity inRattus norvegicus albino (rat) assessed as motor coordination at 200 mg/kg, ip after 30 min by […]; format: toxicity, organism-based; parameters: dose 200 mg/kg, route intraperitoneal; settings: in vivo, 0.5 h
Rattus norvegicus [4] = experiment: Neurotoxicity inRattus norvegicus albino (rat) assessed as motor coordination at 10 mg/kg, ip after 30 min by […]; format: toxicity, organism-based; parameters: dose 10 mg/kg, route intraperitoneal; settings: in vivo, 0.5 h
Rattus norvegicus [5] = experiment: Antiparkinson's activity in Rattus norvegicus albino (rat) assessed as reduction of chlorpromazine-induced catatonia at 10 mg/kg, ip administered 30 min before chlorpromazine challenge measured up to 180 min; format: functional, organism-based; parameters: dose 10 mg/kg

Row | SMILES | logP [2] | Activity (Rattus norvegicus [1]) | Activity (Rattus norvegicus [3]) | Activity (Rattus norvegicus [4]) | Activity (Rattus norvegicus [5])
1 | COc1cc(Br)cc(-c2noc(C3CCN(C)CC3)n2)c1OC | 3.86 | Active | Non-toxic | – | –
2 | COc1cc(Br)cc(-c2noc(C3CCCN(C)C3)n2)c1OC (stereo not drawn) | 4.08 | Active | Non-toxic | – | –
3 | N[C@@H](Cc1ccc(O)c(O)c1)C(=O)O [LEVODOPA] | – | – | – | Non-toxic | inactive
4 | NCCc1ccc(O)c(O)c1 [DOPAMINE] | – | – | – | Non-toxic | inactive
5 | COc1cc(Br)cc(-c2noc(C3CCCCN3C)n2)c1OC (stereo not drawn) | 4.21 | Active | Non-toxic | – | –

More lines, main results first:

Row | logP [2] | SMILES | Activity (Rattus norvegicus [1]) | Activity (Rattus norvegicus [3]) | Activity (Rattus norvegicus [4]) | Activity (Rattus norvegicus [5])
6 | 5.81 | COc1cc(Br)cc(-c2noc(C3CCCCN3Cc3ccccc3)n2)c1OC (stereo not drawn) | Active | Toxic | – | –
7 | 3.79 | COc1cc(Br)cc(-c2noc(C3CCCN3C)n2)c1OC (stereo not drawn) | Active | Non-toxic | – | –
8 | 5.52 | COc1cc(Br)cc(-c2noc(C3CCCN3Cc3ccccc3)n2)c1OC (stereo not drawn) | Active | Toxic | – | –
9 | 5.59 | COc1cc(Br)cc(-c2noc(C3CCN(Cc4ccccc4)CC3)n2)c1OC | Active | Toxic | – | –
10 | 5.81 | COc1cc(Br)cc(-c2noc(C3CCCN(Cc4ccccc4)C3)n2)c1OC (stereo not drawn) | Active | Toxic | – | –
